This note sets out measurements from paper PMC9220251, “Modulation of the 20S Proteasome Activity by Porphyrin Derivatives Is Steered through Their Charge Distribution” (Biomolecules, 2022).

Experiment [1] relates to T1, human 20S proteasome (h20S).
T1 construct: gene PSMA6; purified 20S core particle, purchased from Boston Biochem; 28 subunits in four heptameric rings; no regulatory particle; with Proteasome subunit beta type-6; Proteasome subunit beta type-7; Proteasome subunit beta type-3; Proteasome subunit beta type-2; Proteasome subunit beta type-1; Proteasome subunit beta type-4
Description: STD-NMR and WaterLOGSY. Format: binding. To be noted: 50 mM HEPES, 100 mM NaCl, 1 mM DTT, 298 K; TMPC 175 μM.

In experiment [2] the target is T1, human 20S proteasome (h20S). Description: Suc-LLVY-AMC hydrolysis, global fit of kcat and Km against TMPC (two-state model, n = […], m = […]). Format: biochemical. As to conditions: competitive inhibitory site, substrate-free enzyme in basal state A; model also has three cooperative allosteric sites and state B with separate constants (KAU, KAL, KBU, KBL, KBI); 50 mM Tris-HCl pH.

For the compound `C[n+]1ccc(-c2c3nc(c(-c4cc[n+](C)cc4)c4ccc([nH]4)c4ccc([nH]4)c(-c4cc[n+](C)cc4)c4ccc2[nH]4)C=C3)cc1` [TMPC], the “STD-NMR and WaterLOGSY” value in experiment [1] is recorded as “clearly indicate that the ligand interacts with the h20S”. Further, the Kd (usually a measure of binding affinity in units of concentration) in experiment [2] turned out to be 1000 nM.
